Assay results from patent US20260262643A1, “HERBICIDAL BENZOXAZINES” (FMC CORPORATION, priority 2022, published 2026).

Tests used:
[1] = tested on: foxtail, giant; assay: Test A postemergence; assay type: in vivo, Setaria faberi; settings: 0 to 100 scale; for Plant response rating, Foxtail, Giant: 1000 g ai/ha, Postemergence
Text: (§1) Seeds of plant species selected from barnyardgrass (Echinochloa crusgalli), blackgrass (Alopecurus myosuroides), corn (Zea mays), foxtail, giant (giant foxtail, Setaria faberi), goosegrass (Eleusine indica), kochia (Bassia scoparia), oat, wild (wild oat, Avena fatua), pigweed, palmer (palmer amaranth, palmer pigweed, Amaranthus palmeri), Pigweed, Redroot (redroot pigweed, Amaranthus retroflexus), ragweed (common ragweed, Ambrosia artemisiifolia), ryegrass, Italian (italian ryegrass, Lolium multiflorum), soybean (Glycine max), and wheat (Triticum aestivum) were planted into a blend of loam soil and sand and treated preemergence with a directed soil spray using test chemicals formulated in a non-phytotoxic solvent mixture which included a surfactant. At the same time, plants selected from these crops and weed species and also galium (catchweed bedstraw, Galium aparine) and horseweed (Erigeron canadensis) were planted in pots containing the same blend of loam soil and sand and treated with postemergence applications of test chemicals formulated in the same manner. Plants ranged in height from 2 to 10 cm and were in the one- to two-leaf stage for the postemergence treatment. Treated plants and untreated controls were maintained in a greenhouse for 10 days, after which time all treated plants were compared to untreated controls and visually evaluated for injury. Plant response ratings, summarized in Table A, are based on a 0 to 100 scale where 0 is no effect and 100 is complete control. A dash (-) response means no test result.

[2] = tested on: ryegrass, Italian; assay: Test A preemergence; assay type: in vivo, Lolium multiflorum
Text: as §1

[3] = tested on: pigweed, palmer; assay: Test A postemergence; assay type: in vivo, Amaranthus palmeri; settings: 0 to 100 scale; for Plant response rating, Pigweed, Palmer: 1000 g ai/ha, Postemergence
Text: as §1

[4] = tested on: kochia; assay: Test A postemergence; assay type: in vivo, Bassia scoparia; settings: 0 to 100 scale; for Plant response rating, Kochia: 1000 g ai/ha, Postemergence
Text: as §1

[5] = tested on: ragweed; assay: Test A preemergence; assay type: in vivo, Ambrosia artemisiifolia
Text: as §1

[6] = tested on: blackgrass; assay: Test A preemergence; assay type: in vivo, Alopecurus myosuroides
Text: as §1

[7] = tested on: galium; assay: Test A postemergence; assay type: in vivo, Galium aparine; settings: 1000 g ai/ha, Postemergence; 0 to 100 scale
Text: as §1

[8] = tested on: goosegrass; assay: Test A preemergence; assay type: in vivo, Eleusine indica
Text: as §1

[9] = tested on: ryegrass, Italian; assay: Test A postemergence; assay type: in vivo, Lolium multiflorum; settings: 0 to 100 scale; for Plant response rating, Ryegrass, Italian: 1000 g ai/ha, Postemergence
Text: as §1

[10] = tested on: ragweed; assay: Test A postemergence; assay type: in vivo, Ambrosia artemisiifolia; settings: 0 to 100 scale; for Plant response rating, Ragweed: 1000 g ai/ha, Postemergence
Text: as §1

[11] = tested on: foxtail, giant; assay: Test A preemergence; assay type: in vivo, Setaria faberi
Text: as §1

[12] = tested on: goosegrass; assay: Test A postemergence; assay type: in vivo, Eleusine indica; settings: 0 to 100 scale; for Plant response rating, Goosegrass: 1000 g ai/ha, Postemergence
Text: as §1

[13] = tested on: blackgrass; assay: Test A postemergence; assay type: in vivo, Alopecurus myosuroides; settings: 0 to 100 scale; for Plant response rating, Blackgrass: 1000 g ai/ha, Postemergence
Text: as §1

[14] = tested on: horseweed; assay: Test A postemergence; assay type: in vivo, Erigeron canadensis; settings: 0 to 100 scale; for Plant response rating, Horseweed: 1000 g ai/ha, Postemergence
Text: as §1

[15] = tested on: pigweed, palmer; assay: Test A preemergence; assay type: in vivo, Amaranthus palmeri
Text: as §1

[16] = tested on: kochia; assay: Test A preemergence; assay type: in vivo, Bassia scoparia
Text: as §1

[17] = tested on: wheat; assay: Test A preemergence; assay type: in vivo, Triticum aestivum; settings: 125 g ai/ha, visual injury after 10 days, 0 to 100 scale, 0 is no effect, 100 is complete control
Text: as §1

[18] = tested on: wheat; assay: Test A postemergence; assay type: in vivo, Triticum aestivum; settings: 125 g ai/ha, postemergence, 10 days; 0 to 100 scale, 0 no effect, 100 complete control
Text: as §1

[19] = tested on: corn; assay: Test A preemergence; assay type: in vivo, Zea mays; settings: 125 g ai/ha, visual injury after 10 days, 0 to 100 scale, 0 is no effect, 100 is complete control
Text: as §1

[20] = tested on: soybean; assay: Test A postemergence; assay type: in vivo, Glycine max; settings: 125 g ai/ha, postemergence, 10 days; 0 to 100 scale, 0 no effect, 100 complete control
Text: as §1

[21] = tested on: soybean; assay: Test A preemergence; assay type: in vivo, Glycine max; settings: 125 g ai/ha, visual injury after 10 days, 0 to 100 scale, 0 is no effect, 100 is complete control
Text: as §1

[22] = tested on: oat, wild; assay: Test A preemergence; assay type: in vivo, Avena fatua; settings: 125 g ai/ha, visual injury after 10 days, 0 to 100 scale, 0 is no effect, 100 is complete control
Text: as §1

[23] = tested on: corn; assay: Test A postemergence; assay type: in vivo, Zea mays; settings: 125 g ai/ha, postemergence, 10 days; 0 to 100 scale, 0 no effect, 100 complete control
Text: as §1

[24] = tested on: oat, wild; assay: Test A postemergence; assay type: in vivo, Avena fatua; settings: 125 g ai/ha, postemergence, 10 days; 0 to 100 scale, 0 no effect, 100 complete control
Text: as §1

[25] = 1000 g ai/ha, 0 to 100 scale (0 no effect, 100 complete control), 10 days
[26] = 125 g ai/ha, postemergence, 10 days, 0 no effect, 100 complete control
[27] = 125 g ai/ha, visual injury after 10 days, 0 to 100 scale, 0 is no effect, 100 is complete control

`Cc1nc(-c2cccc(C(=O)N3C[C@H](C)Oc4c(Cl)cccc43)c2)no1` [Compound 120] was tested, and the “Plant response rating, Foxtail, Giant” value [1] was 20, the “Plant response rating, Ryegrass, Italian” value [2, 25] was 10 and the “Plant response rating, Pigweed, Palmer” value [3] was 40. For the same compound, the “Plant response rating, Kochia” value [4] was 50, the “Plant response rating, Ragweed” value [5, 25] was 0 and the “Plant response rating, Blackgrass” value [6, 25] was 10. For the same compound, the “Plant response rating, Galium” value [7] was 40, the “Plant response rating, Goosegrass” value [8, 25] was 10 and the “Plant response rating, Ryegrass, Italian” value [9] was 0. The “Plant response rating, Ragweed” value [10] was 0, the “Plant response rating, Foxtail, Giant” value [11, 25] was 20 and the “Plant response rating, Goosegrass” value [12] was 10. The “Plant response rating, Blackgrass” value [13] was 0, the “Plant response rating, Horseweed” value [14] was 0 and the “Plant response rating, Pigweed, Palmer” value [15, 25] was 0. For the same compound, the “Plant response rating, Kochia” value [16, 25] was 0.
For `O=C(c1ccnc(-n2cncn2)c1)N1CC(CF)Oc2c(Cl)cccc21` (stereo not shown) [Compound 36], the “Plant response rating, Foxtail, Giant” value [1] was 90, the “Plant response rating, Ryegrass, Italian” value [2, 25] was 50 and the “Plant response rating, Pigweed, Palmer” value [3] was 60. For the same compound, the “Plant response rating, Kochia” value [4] was 60, the “Plant response rating, Ragweed” value [5, 25] was 30 and the “Plant response rating, Blackgrass” value [6, 25] was 70. The “Plant response rating, Galium” value [7] was 90, the “Plant response rating, Goosegrass” value [8, 25] was 90 and the “Plant response rating, Ryegrass, Italian” value [9] was 40. The “Plant response rating, Ragweed” value [10] was 60, the “Plant response rating, Foxtail, Giant” value [11, 25] was 100 and the “Plant response rating, Goosegrass” value [12] was 30. For the same compound, the “Plant response rating, Blackgrass” value [13] was 60, the “Plant response rating, Horseweed” value [14] was 0 and the “Plant response rating, Pigweed, Palmer” value [15, 25] was 40. The “Plant response rating, Kochia” value [16, 25] was 20.
In the case of `CCC(C)c1ncn(-c2cccc(C(=O)N3C[C@H](C)Oc4c(C)cccc43)c2)n1` (stereo partly shown) [Compound 87], the “Foxtail, Giant plant response rating” value [1, 26] is reported as 10, the “Plant response rating, Wheat” value [17] is reported as 0 and the “Plant response rating, Ryegrass, Italian” value [2, 27] is reported as 100. The “Wheat plant response rating” value [18] was 10, the “Pigweed, Palmer plant response rating” value [3, 26] was 30 and the “Kochia plant response rating” value [4, 26] was 70. The “Plant response rating, Ragweed” value [5, 27] was 0, the “Plant response rating, Corn” value [19] was 10 and the “Plant response rating, Blackgrass” value [6, 27] was 40. For the same compound, the “Plant response rating, Goosegrass” value [8, 27] was 80, the “Ryegrass, Italian plant response rating” value [9, 26] was 10 and the “Soybean plant response rating” value [20] was 40. The “Ragweed plant response rating” value [10, 26] was 50, the “Plant response rating, Foxtail, Giant” value [11, 27] was 50 and the “Goosegrass plant response rating” value [12, 26] was 30. For the same compound, the “Plant response rating, Soybean” value [21] was 0, the “Blackgrass plant response rating” value [13, 26] was 10 and the “Plant response rating, Oat, Wild” value [22] was 20. The “Corn plant response rating” value [23] was 10, the “Oat, Wild plant response rating” value [24] was 20 and the “Horseweed plant response rating” value [14, 26] was 0. The “Plant response rating, Pigweed, Palmer” value [15, 27] was 30 and the “Plant response rating, Kochia” value [16, 27] was 30.
